According to US6319894A, “Complexes and combinations of fetuin with therapeutic agents” (The Picower Institute for Medical Research, priority 1997, dated 2001):
Counter-ions that a name gives are not always drawn. Like-named read-outs stand apart in the source and are kept apart here.

Assays:
[1] = system: LPS-stimulated RAW 264.7 cells (inducible nitric oxide synthase, iNOS); test: NO / nitrite production (Griess reaction, iNOS activity) in LPS-stimulated RAW 264.7 cells; type: cell-based, murine; details: for augmentation of CNI-1493 activity (nitrite production): glycoprotein 2.5 μg/ml, CNI-1493 2.0 μM, FIG. 13
Procedure: (§1) Typically, cultures were maintained in 150-mm plates with 30 mls culture medium until they reached 80-90% confluence, and were then subjected to different experimental protocols. […] The incubation was continued for another 24 hours before subjecting the cultures to further experiments.
(§2) LPS (endotoxin) was sonicated for 10 minutes and added to culture media to achieve the desired final concentration, typically 100 ng/ml.
Inducible nitric oxide synthase activity (iNOS) was assayed indirectly by measuring NO^2- production. NO^2- was measured by a colorimetric assay based on the Griess reaction. […] The optical density was read at 560 nm after 10 min, and NO^2- concentration was determined with reference to a standard curve by using concentrations of 1.5 to 50 μM sodium nitrite in culture medium.

[2] = system: LPS-stimulated RAW 264.7 cells (IL-1 β, IL-6, MIP-1α, and MIP-1β); details: pre-treatment; prior studies; cited from earlier work
rat paw edema = details: carageenan administration; background statement; cited from earlier work
[3] = system: LPS-stimulated RAW 264.7 cells (LPS-inducible arginase II activity); test: Urea production (LPS-inducible arginase II functional assay) in LPS-stimulated RAW 264.7 cells; type: cell-based, murine
Procedure: as §1, §2
Accumulation of urea in the cell culture medium was measured as a functional assay of LPS-inducible arginase II activity. […] The optical density at 535 nm was measured, and urea concentrations were calculated by comparison with OD535 of standard dilutions of urea prepared in culture medium.
Whole-cell lysate preparations were fractionated by sequential ultrafiltration over Amicon Centricon®-100, and Centricon®-30 filters, respectively.

[4] = system: LPS-stimulated RAW 264.7 cells (LPS-inducible arginase II activity); details: pre-treatment; prior studies; cited from earlier work
[5] = system: LPS-stimulated RAW 264.7 cells (TNF production); details: pre-treatment; prior studies; cited from earlier work
[6] = system: LPS-stimulated RAW 264.7 cells (TNF production); test: TNF production (ELISA) in LPS-stimulated RAW 264.7 cells; type: cell-based, murine; details: for inhibition at 2.5 µM: RAW264.7, 4 h
Procedure: as §1, §2

[7] = system: human peripheral blood mononuclear cells; details: background statement, cited from earlier work
[8] = system: mice, endotoxin (LPS) lethality; details: in vivo; background statement; cited from earlier work
[9] = Charge at physiological pH; type: physicochemical
[10] = system: LPS-stimulated RAW 264.7 cells (inducible nitric oxide synthase, iNOS); details: pre-treatment; prior studies; cited from earlier work
[11] = system: LPS-stimulated human PBMCs (TNF production); test: TNF production in LPS-stimulated human PBMCs; type: cell-based; details: CNI-1493 50 nM, FIG. 11; for enhancement of CNI-1493 activity (TNF suppression in PBMCs): fetuin 1.0 μg/ml or 10 μg/ml
NO production = details: background statement; cited from earlier work
arginine uptake = test: Assay for arginine uptake; type: cell-based
[12] = system: LPS-challenged mice (serum TNF); test: Serum TNF levels in LPS-challenged mice; type: in vivo; details: fetuin 20 mg/kg pretreatment 1 hour; CNI-1493 2.5 mg/kg ip; LPS 13 mg/kg; serum at four hours; FIG. 12
Procedure: The fetuin pretreatment dose was 20 mg/kg.

[13] = LPS-activated macrophages, CNI-1493 alone
[14] = non-responsive cultures (≥56 hours after 1:4 split), CNI-1493 up to 5 μM

α1-acid glycoprotein: other glycoprotein, net negatively charged at physiological pH
augmentation of CNI-1493 activity (nitrite production) [1]: only fetuin was effective in augmenting CNI-1493 therapeutic activity

CC(=NNC(=N)N)c1cc(NC(=O)CCCCCCCCC(=O)Nc2cc(C(C)=NNC(=N)N)cc(C(C)=NNC(=N)N)c2)cc(C(C)=NNC(=N)N)c1 [CNI-1493, N,N'-bis[3,5-bis[1-(aminoiminomethyl)hydrazonoethyl]phenyl]decanediamide tetrahydrochloride]
suppression of several other cytokines such as IL-1 β, IL-6, MIP-1α, and MIP-1β [2]: suppresses | anti-inflammatory effect, paw edema and inflammation (rat paw edema): suppression of rat paw edema and inflammation | suppression of urea production [3, 13]: dose-dependent suppression of urea production | inhibition at 5 µM ([3]; Mus musculus, RAW264.7, 20 h, read-out: decrease in urea accumulation compared to control): > 95% | inhibition at 2.5 µM ([3]; Mus musculus, RAW264.7, read-out: suppression of urea): > 50% | inhibition at 2.5 µM ([3]; Mus musculus, RAW264.7, read-out: suppression of urea accumulation): < 10% | IC50 ([3]; Mus musculus, RAW264.7, responsive cultures, estimated, read-out: IC50 (concentration of 50% inhibition) with respect to urea production): < 2 µM | effect on level of urea [3, 14]: not reduced | urea concentration, effect of CNI-1493 alone ([3]; partially non-responsive cells, 2.5 μM CNI-1493, FIG. 9): small degree of inhibitory activity | suppression of LPS-stimulated urea production [4]: suppresses | suppression of LPS-stimulated TNF production [5]: suppresses | suppression of TNF-α production [6, 13]: dose-dependent suppression | inhibition at 2.5 µM ([6]; Mus musculus, read-out: suppression of TNF accumulation): < 10% | inhibition at 2.5 µM ([6]; Mus musculus, read-out: suppression of TNF production): > 90% | IC50 ([6]; Mus musculus, RAW264.7, responsive cultures, stated as approximately the same as the urea IC50, read-out: IC50 with respect to TNF production): < 2 µM | inhibition of TNF levels in culture supernatants ([6]; low serum precultured (non-responsive) cells, FIG. 1): not responsive | effect on level of TNF [6, 14]: not reduced | suppression of NO production [1, 13]: dose-dependent suppression | inhibition at 2.5 µM ([1]; Mus musculus, RAW264.7, read-out: suppression of NO): > 50% | inhibition at 2.5 µM ([1]; Mus musculus, RAW264.7, read-out: suppression of NO accumulation): < 10% | IC50 ([1]; Mus musculus, RAW264.7, responsive cultures, stated as approximately the same as the urea IC50, read-out: IC50 with respect to NO production): < 2 µM | effect on level of NO [1, 14]: not reduced | inhibition of TNF translation [7]: inhibits TNF (tumor necrosis factor) translation | suppression of production of IL-1, IL-6, MIP-1α and MIP-1β ([7]; human peripheral blood mononuclear cells): suppresses the production of IL-1, IL-6, MIP-1α and MIP-1β | protection against lethal effects of endotoxin [8]: protects mice against lethal effects of endotoxin | charge at physiological pH [9]: four positive charges | suppression of LPS-stimulated NO production [10]: suppresses | suppression of TNF production in PBMCs by CNI-1493 [11]: active in suppressing TNF production | IC50 (NO production): 5 µM | IC50 (arginine uptake): ~10 µM

B1: asialofetuin: fetuin glycoprotein treated to remove terminal sialic acid residues (protein, UniProt P12763 19-359, looked up)
Alpha-2-HS-glycoprotein: IPLDPVAGYKEPACDDPDTEQAALAAVDYINKHLPRGYKHTLNQIDSVKVWPRRPTGEVYDIEIDTLETTCHVLDPTPLANCSVRQQTQHAVEGDCDIHVLKQDGQFSVLFTKCDSSPDSAEDVRKLCPDCPLLAPLNDSRVVHAVEVALATFNAESNGSYLQLVEISRAQFVPLPVSVSVEFAVAATDCIAKEVVDPTKCNLLAEKQYGFCKGSVIQKALGGEDVRVTCTLFQTQPVIPQPQPDGAEAEAPSAVPDAAGPTPSAAGPPVASVVVGPSVVAVPLPLHRAHYDLRHTFSGVASVESSSGEAFHVGKTPIVGQPSIPGGPVRLCPGRIRYFKI
modifications: desialylated
notes: fetuin glycoprotein treated to remove terminal sialic acid residues
enhancement of CNI-1493 activity (suppression of urea production) ([3]; non-responsive cultures, glycoprotein 1.0 and 2.5 μg/ml, CNI-1493 2.5 μM, FIG. 10): not nearly as active as fetuin

B2: fetuin: globular protein of about 60-70 kDa, containing 20-25% carbohydrate (protein, UniProt P12763 19-359, looked up)
Alpha-2-HS-glycoprotein: B1 Alpha-2-HS-glycoprotein
augmentation of CNI-1493 activity (nitrite production) [1]: only fetuin was effective in augmenting CNI-1493 therapeutic activity

B3: bovine fetuin (Sigma): globular 341-amino acid polypeptide with six internal disulfide bonds and three N-linked and two O-linked oligosaccharide chains (protein, UniProt P12763 19-359, looked up)
Alpha-2-HS-glycoprotein: B1 Alpha-2-HS-glycoprotein
enhancement of CNI-1493 activity (suppression of serum TNF) [12]: greatly enhanced CNI-1493 therapeutic activity | enhancement of CNI-1493 activity (TNF suppression in PBMCs) [11]: enhanced, in a dose-dependent fashion

B4: human fetuin glycoprotein: human fetuin glycoprotein (commercially prepared, Sigma) (protein)
chain: MKSLVLLLCLAQLWGCHSAPHGPGLIYRQPNCDDPETEEAALVAIDYINQNLPWGYKHTLNQIDEVKVWPQQPSGELFEIEIDTLETTCHVLDPTPVARCSVRQLKEHAVEGDCDFQLLKLDGKFSVVYAKCDSSPDSAEDVRKVCQDCPLLAPLNDTRVVHAAKAALAAFNAQNNGSNFQLEEISRAQLVPLPPSTYVEFTVSGTDCVAKEATEAAKCNLLAEKQYGFCKATLSEKLGGAEVAVTCTVFQTQPVTSQPQPEGANEAVPTPVVDPDAPPSPPLGAPGLPPAGSPPDSHVLLAAPPGHQLHRAHYDLRHTFMGVVSLGSPSGEVSHPRKTRTVVQPSVGAAAGPVVPPCPGRIRHFKV
enhancement of CNI-1493 activity (TNF suppression in PBMCs) [11]: enhanced

B5: glycophorin: other glycoprotein, net negatively charged at physiological pH (protein, UniProt P02724 20-150, looked up)
Glycophorin-A: LSTTEVAMHTSTSSSVTKSYISSQTNDTHKRDTYAATPRAHEVSEISVRTVYPPEEETGERVQLAHHFSEPEITLIIFGVMAGVIGTILLISYGIRRLIKKSPSDVKPLPSPDTDVPLSSVEIENPETSDQ
augmentation of CNI-1493 activity (nitrite production) [1]: only fetuin was effective in augmenting CNI-1493 therapeutic activity
